Source: US7994196B2, “Indazole compound and pharmaceutical use thereof” (Mitsubishi Tanabe Pharma Corporation, priority 2004, dated 2011)
Like-named read-outs stand apart in the source and are kept apart here.

System: MMP-9 production
Test: Determination of MMP-9 Production Inhibitory Activity (PMA-stimulated HEC3 cells, gelatin zymography)
Type: cell-based
Conditions: Endothelial cell, immortalized human vascular endothelial cells HEC3, PMA 10^-7 M stimulation, test substance at 10, 2, 0.4 and 0.08 μM, read-out: IC50 (MMP-9 production inhibitory rate)
Protocol: Immortalized human vascular endothelial cells HEC3 (supplied by Prof. Iijima of Nagoya University) were subcultured in RPMI1640 medium (Sigma Ltd.) containing 10% fetal calf serum.
The HEC3 cells (5×10^4 cells/well) were plated on a 24-well plate, and cultured in RPMI1640 medium containing 10% fetal calf serum for 24 hr. Each well was washed once with serum-free RPMI1640 medium. Then, RPMI1640 medium (250 μl/well) containing 0.05% fetal calf serum was added to each well, and the cells were further cultured for 2 hr.
The supernatant was removed, and the test substances (Example compounds shown in Table 1) diluted to various concentrations were added and incubated for 1 hr in 0.05% serum-containing RPMI1640 medium and the supernatant was removed again. A medium containing a test substance having the same concentration as in the pre-treatment and PMA (10^−7 M), which is a stimulant, was added at 250 μl/well, and the cells were further cultured for 24 hr.
After completion of the culture, water (50 μl) and 25 μl of SDS buffer (240 mM Tris-HCl (pH 6.8), 8% SDS, 40% glycerol) were added to the culture supernatant (25 μl), and the mixture (10 μl) was electrophoresed on a 7.5% polyacrylamide gel containing 0.1% gelatin.
After the electrophoresis, the gel was washed with Tris-HCl buffer (pH 7.5) containing 0.5% Triton X-100 (Sigma Ltd.) for 1 hr. The gel was immersed in an activation buffer (150 mM NaCl, 50 mM Tris-HCl (pH 7.5), 10 mM CaCl2) at 37° C. for 18 hr to activate MMP-9, and then stained with CBB. The obtained MMP-9 band was converted to numerical values by a densitometer (ATTO. Ltd.).
The MMP-9 production inhibitory rate by the test substance was calculated by the following equation. MMP-9 production inhibitory rate=100−100×{(test substance addition value−non-stimulation value)/(PMA stimulation value−non-stimulation value)}
The MMP-9 production inhibitory rates of the test substance at 10, 2, 0.4 and 0.08 μM were calculated, and IC50 value of the each test substance was determined using an analysis soft (RegExcel).

Cc1ccc(F)c(C2(O)CCN(C(=O)Nc3n[nH]c4ccccc34)CC2)c1 [Ex. 130, 4-(2-fluoro-5-methylphenyl)-4-hydroxy-1-piperidinecarboxylic acid (1H-indazol-3-yl)amide]
IC50 (Homo sapiens, 24 h): 620 nM

O=C(Nc1n[nH]c2ccccc12)N1CCC(O)(c2cccc(C(F)(F)F)c2)CC1 [Ex. 3]
IC50 (Homo sapiens, 24 h): 930 nM

O=C(Nc1n[nH]c2ccccc12)N1CCC(O)(c2ccc(Cl)cc2)CC1 [Ex. 4]
IC50 (Homo sapiens, 24 h): 400 nM

O=C(Nc1n[nH]c2ccccc12)N1CCC(O)(c2cccc(Cl)c2F)CC1 [Ex. 20]
IC50 (Homo sapiens, 24 h): 320 nM

Cc1ccc(C(F)(F)F)cc1C1(O)CCN(C(=O)Nc2n[nH]c3ccccc23)CC1 [Ex. 141, 4-hydroxy-4-[2-methyl-5-(trifluoromethyl)phenyl]-1-piperidinecarboxylic acid (1H-indazol-3-yl)amide]
IC50 (Homo sapiens, 24 h): 320 nM

Cc1cc(F)cc(C2(O)CCN(C(=O)Nc3n[nH]c4ccccc34)CC2)c1 [Ex. 138, 4-(3-fluoro-5-methylphenyl)-4-hydroxy-1-piperidinecarboxylic acid (1H-indazol-3-yl)amide]
IC50 (Homo sapiens, 24 h): 100 nM

O=C(Nc1n[nH]c2ccccc12)N1CCN(c2ccc(Cl)c(C(F)(F)F)c2)CC1 [Ex. 93, 4-[4-chloro-3-(trifluoromethyl)phenyl]-1-piperazinecarboxylic acid (1H-indazol-3-yl)amide]
IC50 (Homo sapiens, 24 h): 170 nM

N#CC1(c2ccccc2F)CCN(C(=O)Nc2n[nH]c3ccccc23)CC1 [Ex. 43]
IC50 (24 hr): 450 nM

O=C(Nc1n[nH]c2ccccc12)N1CCC(O)(c2cc(C(F)(F)F)ccc2F)CC1 [Ex. 35]
IC50 (Homo sapiens, 24 h): 720 nM

O=C(Nc1n[nH]c2ccccc12)N1CCc2c([nH]c3ccc(C(F)(F)F)cc23)C1 [Ex. 69]
IC50 (Homo sapiens, 24 h): 160 nM

O=C(Nc1n[nH]c2ccccc12)N1CC=C(c2ccc(F)cc2)CC1 [Ex. 50]
IC50 (Homo sapiens, 24 h): 1300 nM

COc1ccc2[nH]c3c(c2c1)CCN(C(=O)Nc1n[nH]c2ccccc12)C3 [Ex. 73]
IC50 (Homo sapiens, 24 h): 90 nM

CSc1cccc(C2(O)CCN(C(=O)Nc3n[nH]c4ccccc34)CC2)c1 [Ex. 30]
IC50 (Homo sapiens, 24 h): 300 nM

O=C(Nc1n[nH]c2ccccc12)N1CCC(O)(c2cc(F)cc(C(F)(F)F)c2)CC1 [Ex. 6]
IC50 (Homo sapiens, 24 h): 290 nM

COCCn1c2c(c3ccccc31)CCN(C(=O)Nc1n[nH]c3ccccc13)C2 [Ex. 66]
IC50 (Homo sapiens, 24 h): 630 nM

O=C(Nc1n[nH]c2ccccc12)N1CCc2c([nH]c3cc(Cl)c(F)cc23)C1 [Ex. 82, 7-chloro-6-fluoro-1,3,4,9-tetrahydro-β-carboline-2-carboxylic acid (1H-indazol-3-yl)amide]
IC50 (Homo sapiens, 24 h): 100 nM

O=C(Nc1n[nH]c2ccccc12)N1CCC(O)(c2cccc(Cl)c2)CC1 [Ex. 24]
IC50 (Homo sapiens, 24 h): 210 nM

O=C(Nc1n[nH]c2ccccc12)N1CCC(O)(c2cc(C(F)(F)F)ccc2Cl)CC1 [Ex. 36]
IC50 (Homo sapiens, 24 h): 540 nM

O=C(Nc1n[nH]c2ccccc12)N1CCN(c2cc(F)cc(C(F)(F)F)c2)CC1 [Ex. 97, 4-[3-fluoro-5-(trifluoromethyl)phenyl]-1-piperazinecarboxylic acid (1H-indazol-3-yl)amide]
IC50 (Homo sapiens, 24 h): 210 nM

Cc1cccc(C2(O)CCN(C(=O)Nc3n[nH]c4ccccc34)CC2)c1 [Ex. 28]
IC50 (Homo sapiens, 24 h): 360 nM

O=C(Nc1n[nH]c2ccccc12)N1CC=C(c2cccc(F)c2F)CC1 [Ex. 56]
IC50 (Homo sapiens, 24 h): 230 nM

N#CC1(c2ccc(Cl)c(C(F)(F)F)c2)CCN(C(=O)Nc2n[nH]c3ccccc23)CC1 [Ex. 44]
IC50 (24 hr): 450 nM

N#Cc1cccc(C2(O)CCN(C(=O)Nc3n[nH]c4ccccc34)CC2)c1 [Ex. 29]
IC50 (Homo sapiens, 24 h): 910 nM

O=C(Nc1n[nH]c2ccccc12)N1CCc2c([nH]c3cc(F)ccc23)C1 [Ex. 71]
IC50 (Homo sapiens, 24 h): 140 nM

O=C(Nc1n[nH]c2ccccc12)N1CCC(O)(c2ccc(Cl)c(C(F)(F)F)c2)CC1 [Ex. 1]
IC50 (Homo sapiens, 24 h): 790 nM

COc1ccccc1C1(C#N)CCN(C(=O)Nc2n[nH]c3ccccc23)CC1 [Ex. 40]
IC50 (24 hr): 840 nM

COc1ccc(N2CCN(C(=O)Nc3n[nH]c4ccccc34)CC2)cc1C(F)(F)F [Ex. 95, 4-[4-methoxy-3-(trifluoromethyl)phenyl]-1-piperazinecarboxylic acid (1H-indazol-3-yl)amide]
IC50 (Homo sapiens, 24 h): 510 nM

O=C(Nc1n[nH]c2ccccc12)N1CCC(O)(c2cc(F)cc(Cl)c2)CC1 [Ex. 22]
IC50 (Homo sapiens, 24 h): 330 nM

O=C(Nc1n[nH]c2ccccc12)N1CCC(O)(c2ccc(F)c(C(F)(F)F)c2)CC1 [Ex. 9]
IC50 (Homo sapiens, 24 h): 340 nM

O=C(Nc1n[nH]c2ccccc12)N1CCC(O)(c2cc(C(F)(F)F)cc(C(F)(F)F)c2)CC1 [Ex. 34]
IC50 (Homo sapiens, 24 h): 430 nM

O=C(Nc1n[nH]c2ccccc12)N1CCc2c(c(=O)oc3ccccc23)C1 [Ex. 103, 5-oxo-1,5-dihydro-2H-chromeno[3,4-c]pyridine-3-carboxylic acid (1H-indazol-3-yl)amide]
IC50 (Homo sapiens, 24 h): 60 nM

O=C(Nc1n[nH]c2ccccc12)N1CC=C(c2ccc(Cl)s2)CC1 [Ex. 58]
IC50 (Homo sapiens, 24 h): 120 nM

Cc1ccc(C2(O)CCN(C(=O)Nc3n[nH]c4ccccc34)CC2)cc1C [Ex. 142, 4-(3,4-dimethylphenyl)-4-hydroxy-1-piperidinecarboxylic acid (1H-indazol-3-yl)amide]
IC50 (Homo sapiens, 24 h): 400 nM

Cc1ccc(C2(O)CCN(C(=O)Nc3n[nH]c4ccccc34)CC2)cc1Cl [Ex. 132, 4-(3-chloro-4-methylphenyl)-4-hydroxy-1-piperidinecarboxylic acid (1H-indazol-3-yl)amide]
IC50 (Homo sapiens, 24 h): 390 nM

O=C(Nc1n[nH]c2ccccc12)N1CCc2c([nH]c3cccc(Cl)c23)C1 [Ex. 78, 5-chloro-1,3,4,9-tetrahydro-β-carboline-2-carboxylic acid (1H-indazol-3-yl)amide]
IC50 (Homo sapiens, 24 h): 280 nM

Cc1c(Cl)cccc1C1(O)CCN(C(=O)Nc2n[nH]c3ccccc23)CC1 [Ex. 131, 4-(3-chloro-2-methylphenyl)-4-hydroxy-1-piperidinecarboxylic acid (1H-indazol-3-yl)amide]
IC50 (Homo sapiens, 24 h): 440 nM
